From article PMC9182007, “Statistical Methods in the Study of Protein Binding and Its Relationship to Drug Bioavailability in Breast Milk” (Molecules, 2022)
Read-outs that look alike come from different tables or passages of the source.

Legend:
[1] = biological target: T1, bovine serum albumin (BSA) (Bos taurus, UniProt P02769); assay: RP TLC on plates impregnated with bovine serum albumin; type: binding; settings: for RP (Rf, BSA-impregnated RP plate): Table S4, RP plate impregnated with 2 mg/mL BSA, pH 7.4 mobile phase
T1 construct: purchased Sigma Aldrich

plasma protein = settings: ref DrugBank [7], cited from earlier work
[2] = source not stated, cited from earlier work
[3] = HPLC on immobilized artificial membrane column (HPLCIAM); type: physicochemical; settings: for log k IAM: Table S5, IAM column, pH 7.4; for k IAM: Table S5, retention factor, IAM column, phosphate buffer pH 7.4/acetonitrile 80:20
Method: High performance liquid chromatography was performed using immobilized human serum albumin column (HPLCHSA) and immobilized artificial membrane (HPLCIAM). HPLC was the source of the log k values (logarithm of retention factor), log kHSA and log kIAM.
The second experiment was performed using an immobilized artificial membrane (IAM) column. The assay was also performed on a Perkin Elmer Series 200 instrument connected to a UV-VIS spectrometer as the detector. The analytical wavelength was the same for all compounds, at 210 nm. […] The mobile phase was a mixture of 10 mM phosphate buffer pH 7.4 and acetonitrile in the ratio 80:20 (v/v). The phosphate buffer was obtained by dissolving the finished tablet in the appropriate amount of distilled water (1 tablet per 200 mL). In this case, it was not necessary to adjust the pH of the buffer using a pH meter.
The phase flow through the system was set to 0.5 mL/min as recommended by the column manufacturer. The solutions were delivered to the column using an autosampler syringe, the injection size was 10 µL.
The experiment was then repeated and the collected retention rates were the mean values of both series.

[4] = cited from earlier work
[5] = RP TLC on non-impregnated control plates; type: physicochemical; settings: for CRP (Rf, control RP plate): Table S4, non-impregnated RP plate, acetonitrile/acetate buffer pH 7.4/methanol 60:20:20
Method: For TLC chromatography, glass plates 20 × 20 cm from Merck, covered with silica gel with the addition of a fluorescent indicator, were used. Normal phase (NP) plates were used with standard Merck TLC Silica gel 60 F254 plates, while in reverse phase (RP) silanized plates RP-2: Merck TLC Silica gel 60 RP-2 F254 were used.
Normal and reversed phase thin layer chromatography (NP TLC and RP TLC respectively) was performed using silica-gel-coated glass plates. Half of them were covered with 2 mg/mL bovine serum albumin solution and half remained pure.
The mobility of the compounds was also determined on the plates with no protein as a modifier. […] The acetate buffer (20 mM) was prepared by dissolving 1.54 g of ammonium acetate in 1 L of distilled water. The pH was then adjusted with a concentrated ammonia solution using a pH meter. The plates were developed in standard, vertical chromatographic chambers, each time using 100 mL of the mobile phase, after the chamber was previously saturated with solvent vapors for approximately 1 h.
The unfolded-protein-impregnated plates and the control plates were scanned with a Desaga CD 60 densitometer. The values of the delay factor (Rf) were collected, i.e., the ratio of the distance traveled by the substance to be analyzed to the distance traveled through the front of the mobile phase. […] The experiment was repeated (for both BSA-coated and control plates) and the Rf values pooled are the mean of both series of experiments.

[6] = NP TLC on non-impregnated control plates; type: physicochemical; settings: for CNP (Rf, control NP plate): Table S3, non-impregnated NP plate, acetonitrile/acetate buffer pH 7.4/methanol 60:20:20
[7] = biological target: T1, bovine serum albumin (BSA); assay: NP TLC on plates impregnated with bovine serum albumin; type: binding; settings: for NP (Rf, BSA-impregnated NP plate): Table S3, NP plate impregnated with 2 mg/mL BSA, pH 7.4 mobile phase
[8] = biological target: T2, human serum albumin (HSA) (Homo sapiens, UniProt P02768); assay: in vitro; settings: immobilized hsa column, pH 7.4
[9] = ref DrugBank [7], cited from earlier work
[10] = biological target: T2, human serum albumin (HSA); settings: for log k HSA: Table S5, HSA
[11] = Milk-to-plasma (M/P) drug concentration ratio obtained in vivo, from literature; parameters: species or system human; settings: Table S1, scale of drug penetration into milk 1-4
[12] = Table S1, plasma protein binding given as fraction
[13] = Table S1, milk/plasma drug concentration ratio, in vivo
[14] = Table S5, retention factor, HSA column, pH 7.4, 25 degrees Celsius

T2 sequence (P02768 25-609): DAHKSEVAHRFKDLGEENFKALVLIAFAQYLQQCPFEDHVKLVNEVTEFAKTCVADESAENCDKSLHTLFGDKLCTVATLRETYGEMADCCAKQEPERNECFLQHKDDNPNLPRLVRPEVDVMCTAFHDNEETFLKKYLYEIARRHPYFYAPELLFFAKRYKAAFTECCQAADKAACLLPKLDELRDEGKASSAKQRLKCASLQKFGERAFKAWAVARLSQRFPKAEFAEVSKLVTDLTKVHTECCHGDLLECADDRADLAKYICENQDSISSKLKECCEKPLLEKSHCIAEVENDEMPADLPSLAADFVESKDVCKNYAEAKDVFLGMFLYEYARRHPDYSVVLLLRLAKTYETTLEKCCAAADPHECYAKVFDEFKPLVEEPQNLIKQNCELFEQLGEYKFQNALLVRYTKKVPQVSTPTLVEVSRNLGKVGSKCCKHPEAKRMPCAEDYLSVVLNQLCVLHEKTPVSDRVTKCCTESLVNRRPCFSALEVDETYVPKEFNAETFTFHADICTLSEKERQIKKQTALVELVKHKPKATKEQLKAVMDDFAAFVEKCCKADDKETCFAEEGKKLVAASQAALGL
T1 sequence (P02769 25-607): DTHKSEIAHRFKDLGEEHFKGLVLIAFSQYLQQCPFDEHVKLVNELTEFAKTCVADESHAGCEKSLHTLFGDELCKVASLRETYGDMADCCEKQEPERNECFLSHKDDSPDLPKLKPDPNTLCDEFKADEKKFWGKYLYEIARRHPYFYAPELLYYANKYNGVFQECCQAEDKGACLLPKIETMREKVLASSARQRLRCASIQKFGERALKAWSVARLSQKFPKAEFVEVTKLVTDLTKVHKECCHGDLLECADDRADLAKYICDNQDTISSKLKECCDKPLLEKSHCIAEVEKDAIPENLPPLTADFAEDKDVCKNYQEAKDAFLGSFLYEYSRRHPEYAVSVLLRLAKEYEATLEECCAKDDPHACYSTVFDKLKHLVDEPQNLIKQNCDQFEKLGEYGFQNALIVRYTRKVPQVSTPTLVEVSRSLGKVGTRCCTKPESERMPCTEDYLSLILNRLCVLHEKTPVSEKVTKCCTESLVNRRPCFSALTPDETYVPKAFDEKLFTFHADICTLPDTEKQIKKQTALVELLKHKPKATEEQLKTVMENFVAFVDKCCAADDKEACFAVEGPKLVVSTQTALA

Structure (SMILES)	chromatographic logD [8]	RP (Rf, BSA-impregnated RP plate) [1]	PB (plasma protein; [12])	BB vivo ([2]; Table S1)	M/P code [11]	log k IAM [3]	k IAM [3]	M/P [4, 13]	CRP (Rf, control RP plate) [5]	CNP (Rf, control NP plate) [6]	NP (Rf, BSA-impregnated NP plate) [7]	CNS+/- ([9]; Table S1, coded 1/0)	k HSA [10, 14]	also measured
CN(C)CCC=C1c2ccccc2CCc2ccccc21 [amitriptyline]	0.77													RP (Rf value from the RP plate impregnated with 2 mg/mL BSA solution) ([1]; Table S8, external group): 0.63; PB (plasma protein; Table S6, external group (n = 38), given as fraction): 0.95; BB vivo ([2]; Table S6, external group): 0.89; log kIAM ([3]; Table S9, external group): 0.19; M/P ([4]; Table S6, external group (n = 38)): 0.92; CRP (Rf value from the non-impregnated RP plate, control) ([5]; Table S8, external group): 0.67; CNP (Rf value from the non-impregnated NP plate, control) ([6]; Table S8, external group): 0.32; NP (Rf value from the NP plate impregnated with 2 mg/mL BSA solution) ([7]; Table S8, external group): 0.31; CNS+/- ([9]; Table S6, external group, coded 1/0): 1; kHSA ([10]; Table S9, external group): 5.87
NC(=O)N1c2ccccc2C=Cc2ccccc21 [carbamazepine]		0.84	0.76	-0.070	2 (2 corresponds to the range of 0.40–0.80—at the safety limit)	0.18	1.50	0.558	0.83	0.95	0.95	1	1.09	log k HSA ([10]; pH 7.4): 0.04
CN(C)CCCN1c2ccccc2Sc2ccc(Cl)cc21 [chlorpromazine]	1.12	0.50	0.9	0.950		1.77	58.85		0.49	0.43	0.43		13.33	
CN/C(=N/CCSCc1nc[nH]c1C)NC#N [cimetidine]	-0.17	0.87	0.17	-1.420	4 (4 is M/P >1.20—dangerous)	-0.58	0.26	1.7	0.88	0.64	0.67	0	0.67	
CN1C(=O)CC(=O)N(c2ccccc2)c2cc(Cl)ccc21 [clobazam]	0	0.80	0.85	0.350	1 (Code 1 corresponds to drugs with an M/P value <0.40—completely safe)	0.41	2.58	0.25	0.79	0.95	0.95	1		k HSA ([10]; pH 7.4): 1.01
Clc1cccc(Cl)c1N=C1NCCN1 [clonidine]	0.13	0.68	0.3	0.150	4 (4 is M/P >1.20—dangerous)	0.45	2.83	2	0.73	0.49	0.50	1	1.35	
OCCOCCN1CCN(C(c2ccccc2)c2ccc(Cl)cc2)CC1 (centres unmarked) [hydroxyzine]	0.57		0.93	0.285		1.14	13.82			0.55	0.55	1	3.69	
CN1CCN2c3ccccc3Cc3ccccc3C2C1 (centres unmarked) [mianserin]	0.81	0.55	0.9	0.990	4 (4 is M/P >1.20—dangerous)	1.34	21.72	2.2	0.55	0.54	0.55	1	6.39	
Cc1ncc2n1-c1ccc(Cl)cc1C(c1ccccc1F)=NC2 [midazolam]	0.51	0.66	0.97	0.398	2 (2 corresponds to the range of 0.40–0.80—at the safety limit)	0.76	5.69	0.785	0.66	0.82	0.83	1		k HSA ([10]; pH 7.4): 3.22
CN1CCN2c3ncccc3Cc3ccccc3C2C1 (centres unmarked) [mirtazapine]	0.47	0.58		0.530	3 (3 range 0.81–1.20—possibly over the safety limit)	0.77	5.83	1.1	0.58	0.39	0.39	1	2.96	
CC(=O)Nc1ccc(O)cc1 [paracetamol]		0.92	0.25	-0.463	3 (3 range 0.81–1.20—possibly over the safety limit)	-0.49	0.32	0.84	0.92	0.93	0.94	1	0.28	log k HSA ([10]; pH 7.4): -0.55
O=C1NC(=O)C(c2ccccc2)(c2ccccc2)N1 [phenytoin]	0.21	0.86	0.9	-0.096	1 (Code 1 corresponds to drugs with an M/P value <0.40—completely safe)	0.25	1.78	0.29	0.87	0.97	0.97	1	1.63	
